Earlier results in patent publication US8389248B2, “Deoxyketohexose isomerase and method for producing deoxyhexose and derivative thereof using same” (priority 2006, dated 2013).

Test system: L-rhamnose isomerase
Settings: for Influence of chelating agents on enzyme activity: chelating agent concurrently present during the assay of the activity

SMILES	Influence of chelating agents on enzyme activity	Influence of metal ions: inhibition of the enzyme (1 mM)
O=C(O)CN(CCOCCOCCN(CC(=O)O)CC(=O)O)CC(=O)O [EGTA]	hardly inhibited	
[Co+2] [cobalt ion]		about 30%
O=C(O)CN(CCN(CC(=O)O)CC(=O)O)CC(=O)O [EDTA]	hardly inhibited	
